What was measured:
[1] = test system: IL6; assay: IL-6 Quantification Assay (ELISA), LPS-stimulated RAW 264.7; assay type: cell-based; set-up: inhibition: dose or concentration left out as unconfirmed; details: Mus musculus, RAW264.7; read-out: IL-6: % inh.
[2] = test system: Smad2/Smad3 phosphorylation; assay: Phospho-Smad2/3 Inhibition Assay (western blot), Panc-1; assay type: cell-based, human; details: at 10 μM, Panc-1 pancreatic cancer cell line; starred symbols = activation
Outline: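 Western blotting of lysates (15-50 μg protein) read phosphorylation of Smad2 Ser465/467 and Smad3 Ser423/425. Before lysis, Panc-1 cells got 1 h of 10 ng/ml TGF-b1 following 3 h compound exposure at 37° C (10 μM final, or serial dilutions for IC50, 0.3% DMSO) after overnight 0.5% FBS starvation.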

[3] = test system: Akt phosphorylation; assay: Akt Phosphorylation Assay (western blot), Panc-1; assay type: cell-based, human; details: at 10 μM, * = activation
Outline: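 Phospho-Akt (Ser473) was measured by western blot in lysates of KRas G12D Panc-1 cells exposed to test compound for 6 h at 37 °C, either at 10 μM final with 0.3% DMSO or as serial dilutions for IC50. One format used overnight 0.5% FBS starvation followed by a 15 min pulse of 1.5 ng/ml EGF. The other used cells in 10% FBS with no stimulation.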

Structure (SMILES)	inhibition [1]	% inh of Smad2/3 phosphorylation in Panc-1 [2]	% inh of Akt phosphorylation in Panc-1 [3]
CCn1ccc(-c2cn3nc(-c4nccn4C)nc(Nc4cc(OC)ncn4)c3c2C)n1 [Compound 64, 6-(1-Ethyl-1H-pyrazol-3-yl)-N-(6-methoxypyrimidin-4-yl)-5-methyl-2-(1-methyl-1H-imidazol-2-yl)pyrrolo[2,1-f][1,2,4]triazin-4-amine]	1 to 24%	A (A = 1-25% inhibition)	D* (85-100% activation)
COc1cc(Nc2nc(-c3nccn3C)nn3cc(-c4cccc(OC)n4)c(C)c23)ncn1 [Compound 65, 6-(6-Methoxypyridin-2-yl)-N-(6-methoxypyrimidin-4-yl)-5-methyl-2-(1-methyl-1H-imidazol-2-yl)pyrrolo[2,1-f][1,2,4]triazin-4-amine]	1 to 24%	A* (A* = 1-25% activation)	D* (85-100% activation)
COc1ccc(-c2cn3nc(-c4nccn4C)nc(Nc4cc(OC)ncn4)c3c2C)cn1 [Compound 66, 6-(6-Methoxypyridin-3-yl)-N-(6-methoxypyrimidin-4-yl)-5-methyl-2-(1-methyl-1H-imidazol-2-yl)pyrrolo[2,1-f][1,2,4]triazin-4-amine]	1 to 24%	A* (A* = 1-25% activation)	D* (85-100% activation)
Cc1c(-c2ccn(C(C)C)n2)cn2nc(-c3nccn3C)nc(Nc3nnc(C4CC4)o3)c12 [Compound 67, 5-Cyclopropyl-N-(6-(1-isopropyl-1H-pyrazol-3-yl)-5-methyl-2-(1-methyl-1H-imidazol-2-yl)pyrrolo[2,1-f][1,2,4]triazin-4-yl)-1,3,4-oxadiazol-2-amine]	75 to 100%	0 (0 = 0% inhibition)	D* (85-100% activation)
Cc1c(-c2ccn(C(C)C)n2)cn2nc(-c3nccn3C)nc(Nc3cc(C4CC4)n[nH]3)c12 [Compound 68, N-(3-Cyclopropyl-1H-pyrazol-5-yl)-6-(1-isopropyl-1H-pyrazol-3-yl)-5-methyl-2-(1-methyl-1H-imidazol-2-yl)pyrrolo[2,1-f][1,2,4]triazin-4-amine]	1 to 24%	A* (A* = 1-25% activation)	D* (85-100% activation)
Cc1c(-c2ccn(C(C)C)n2)cn2nc(-c3nccn3C)nc(Nc3cc(C4CC4)no3)c12 [Compound 69, 3-Cyclopropyl-N-(6-(1-isopropyl-1H-pyrazol-3-yl)-5-methyl-2-(1-methyl-1H-imidazol-2-yl)pyrrolo[2,1-f][1,2,4]triazin-4-yl)isoxazol-5-amine]	50 to 74%	A (A = 1-25% inhibition)	D* (85-100% activation)
Cc1c(-c2ccn(C(C)C)n2)cn2nc(-c3nccn3C)nc(Nc3nc(C4CC4)no3)c12 [Compound 70, 3-Cyclopropyl-N-(6-(1-isopropyl-1H-pyrazol-3-yl)-5-methyl-2-(1-methyl-1H-imidazol-2-yl)pyrrolo[2,1-f][1,2,4]triazin-4-yl)-1,2,4-oxadiazol-5-amine]	50 to 74%	0 (0 = 0% inhibition)	C* (46-84% activation)
COc1ccc(Nc2nc(-c3nccn3C)nn3cc(-c4ccn(C(C)C)n4)c(C)c23)cn1 [Compound 71, 6-(1-Isopropyl-1H-pyrazol-3-yl)-N-(6-methoxypyridin-3-yl)-5-methyl-2-(1-methyl-1H-imidazol-2-yl)pyrrolo[2,1-f][1,2,4]triazin-4-amine]	0%	0 (0 = 0% inhibition)	D* (85-100% activation)
Cc1c(-c2ccn(C(C)C)n2)cn2nc(-c3nccn3C)nc(Nc3ccn(C(C)C)n3)c12 [Compound 72, N,6-bis(1-Isopropyl-1H-pyrazol-3-yl)-5-methyl-2-(1-methyl-1H-imidazol-2-yl)pyrrolo[2,1-f][1,2,4]triazin-4-amine]	50 to 74%	0 (0 = 0% inhibition)	D* (85-100% activation)
COc1cncnc1Nc1nc(-c2nccn2C)nn2cc(-c3ccn(C(C)C)n3)c(C)c12 [Compound 73, 6-(1-Isopropyl-1H-pyrazol-3-yl)-N-(5-methoxypyrimidin-4-yl)-5-methyl-2-(1-methyl-1H-imidazol-2-yl)pyrrolo[2,1-f][1,2,4]triazin-4-amine]	50 to 74%	B* (B* = 26-45% activation)	D* (85-100% activation)
COc1ccc(Nc2nc(-c3nccn3C)nn3cc(-c4ccn(C(C)C)n4)c(C)c23)nn1 [Compound 74, 6-(1-Isopropyl-1H-pyrazol-3-yl)-N-(6-methoxypyridazin-3-yl)-5-methyl-2-(1-methyl-1H-imidazol-2-yl)pyrrolo[2,1-f][1,2,4]triazin-4-amine]	1 to 24%	A* (A* = 1-25% activation)	D* (85-100% activation)
COc1cc(Nc2nc(-c3nccn3C)nn3cc(-c4ccn(C)n4)c(C)c23)ncc1-n1cnc(C)c1 [Compound 244, N-(4-Methoxy-5-(4-methyl-1H-imidazol-1-yl)pyridin-2-yl)-5-methyl-2-(1-methyl-1H-imidazol-2-yl)-6-(1-methyl-1H-pyrazol-3-yl)pyrrolo[2,1-f][1,2,4]triazin-4-amine]	0%	A* (A* = 1-25% activation)	D* (85-100% activation)
Cc1c(-c2ccn(C)n2)cn2nc(-c3nccn3C)nc(Nc3cc(-n4ccnc4)ccn3)c12 [Compound 245, N-(4-(1H-imidazol-1-yl)pyridin-2-yl)-5-methyl-2-(1-methyl-1H-imidazol-2-yl)-6-(1-methyl-1H-pyrazol-3-yl)pyrrolo[2,1-f][1,2,4]triazin-4-amine]	25 to 49%	B* (B* = 26-45% activation)	D* (85-100% activation)
Cc1c(-c2ccn(C)n2)cn2nc(-c3nccn3C)nc(Nc3cc(-n4ccnc4C)ccn3)c12 [Compound 246, 5-Methyl-N-(4-(2-methyl-1H-imidazol-1-yl)pyridin-2-yl)-2-(1-methyl-1H-imidazol-2-yl)-6-(1-methyl-1H-pyrazol-3-yl)pyrrolo[2,1-f][1,2,4]triazin-4-amine]	25 to 49%	C* (C* = 46-75% activation)	D* (85-100% activation)
Cc1c(-c2ccn(C)n2)cn2nc(-c3nccn3C)nc(Nc3ccc(N4CCOCC4)cn3)c12 [Compound 247, 5-Methyl-2-(1-methyl-1H-imidazol-2-yl)-6-(1-methyl-1H-pyrazol-3-yl)-N-(5-morpholinopyridin-2-yl)pyrrolo[2,1-f][1,2,4]triazin-4-amine]	75 to 100%	C* (C* = 46-75% activation)	D* (85-100% activation)
Cc1c(-c2ccn(C)n2)cn2nc(-c3nccn3C)nc(Nc3cc(-c4ccccn4)ccn3)c12 [Compound 248, N-([2,4′-Bipyridin]-2′-yl)-5-methyl-2-(1-methyl-1H-imidazol-2-yl)-6-(1-methyl-1H-pyrazol-3-yl)pyrrolo[2,1-f][1,2,4]triazin-4-amine]	75 to 100%	D* (D* = 76-100% activation)	D* (85-100% activation)

— patent US12459951B2, “Compounds that interact with RAS superfamily proteins for treatment of cancers, inflammatory diseases, rasopathies, and fibrotic disease” (SHY Therapeutics, LLC, priority 2022, dated 2025)
